≈ marks a conversion by molar mass, not a printed value. Where two headings read alike, the source gives them in different places.
Key:
[1] = tested on: Staphylococcus aureus ATCC 25923; test: Microdilution MIC assay, planktonic S. aureus; format: cell-based; settings: S. aureus 25923, planktonic cells, this paper
Description: (§1) The antibacterial activity of the inclusion complexes was evaluated on the Gram-negative Escherichia coli ATCC 25922 and Gram-positive Staphylococcus aureus ATCC 25923 reference bacterial strains. The antibacterial activity of the β-CD, precursor complexes, and inclusion complexes was evaluated against planktonic and biofilm-embedded cells to obtain the minimum inhibitory (MIC) and minimum biofilm eradication (MBEC) concentrations, respectively. The antibacterial activity assays were carried out on the Gram-negative E. coli ATCC 25922 and the Gram-positive S. aureus ATCC 25923 reference strains. The antimicrobial activity of the β-CD inclusion complexes versus the β-CD and Cu(II) complexes against planktonic bacterial cells was assessed using the microdilution assay, allowing MIC determination. Anti-biofilm activity was evaluated using the crystal-violet microtiter to determine the MBEC [25]. All experiments were performed in triplicate. In both assays, serial binary concentrations ranging from 8.81 to 0.013 mM were used.

[2] = tested on: Escherichia coli ATCC 25922; test: Microdilution MIC assay, planktonic E. coli; format: cell-based; settings: this paper
Description: as §1

[3] = tested on: L929 cells; test: Cell cycle analysis by flow cytometry, L929; format: cell-based, mouse; settings: L929, 24 h, 1.56 and/or 6.25 µg/mL
Description: (§2) A flow cytometry analysis was used to check the possible influence of the tested compounds on the cell cycle of both cellular lines L929 and B16. Before treatment, 25,000 cells per well were seeded in 24-well plates and treated with 2 concentrations of the compounds (1.56 and 6.25 µg/mL) for 24 h. After treatment, cells were detached, washed with cold PBS, and then resuspended in cold PBS mixed with 100% ethanol and kept at −20 °C for at least 24 h for fixation. The following day, the cells were stained using a 0.1% Triton-X in PBS containing 0.2 mg/mL RNAase and 20 µg/mL propidium iodide. The samples were incubated for 30 min at 37 °C in the dark. After incubation with the staining solution, the cells were washed with PBS and resuspended in 100 µL PBS. The cell cycle measurement was made using CytoFLEX (Beckman Coulter, Brea, CA, USA) by recording 30,000 events/sample. All experiments were made in triplicate, each having at least 2 wells per condition. The data was evaluated using the CytoFLEX software.

[4] = tested on: B16 cells; test: Cell cycle analysis by flow cytometry, B16; format: cell-based, mouse; settings: B16, 24 h, irrespective of the tested concentration (1.56 and/or 6.25 µg/mL)
Description: as §2

[5] = tested on: L929 fibroblasts; test: MTT cellular viability assay, L929 fibroblasts; format: cell-based, mouse; settings: L929, 24 or 48 h, concentrations up to 25 µg/mL
Description: Mouse fibroblast cell line L929 (CCL-1, ATCC, USA) and mouse melanoma cell B16 (ATCC CRL-6475, USA) were grown in DMEM (Dulbecco’s Modified Eagle Medium) supplemented with 2 mM L-Glutamine, 10% fetal calf serum (FCS), 100 units/mL of penicillin, and 100 µg/mL of streptomycin. They were kept at 37 °C in a humidified incubator under an atmosphere containing 5% CO2. All cell-cultivation media and reagents were purchased from Biochrom AG (Berlin, Germany) and Sigma-Aldrich (Darmstadt, Germany).
To test cellular viability, we used the MTT assay (3-(4,5-dimethylthiazol-2-yl)-2,5-diphenyltetrazolium bromide) colorimetric assay as previously described. Briefly, L929 and B16 cells were seeded in 96-well plates at a density of 5000 cells/well and grown in the culture medium for 24 h. […] The absorbance of the samples was recorded at λ = 570 nm using a plate reader (Mithras 940, Berthold, Bad Wildbad, Germany). The data were corrected for background absorbance, and the viability was calculated using the following formula:% viable cells = [(A570 of treated cells)/(A570 of untreated cells)] × 100 (%)
Half-maximal inhibitory concentration (IC50) was determined by fitting the data with a sigmoidal logistic function using Origin 8.1 (Microcal Inc., Northampton, MA, USA) software.

[6] = format: physicochemical
Description: Compound (1) follows a linear profile described in the literature as an AL type, according to Higuchi and Connors. This behavior corresponds to a molar ratio of 1:1 between (1a) and β-CD, similar to that obtained using Job’s method. […] This value confirms that the equilibrium between (1) and β-CD shifts to the product, indicating a high tendency of (1) to enter the cavity of β-CD together with good stability of the (1a)@β-CD complex. […] Higuchi described this model as being AP, meaning a positive deviation from the linearity, corresponding to a 1:2 molar ratio between (2) and β-CD, in very good agreement with results obtained by Job’s method. This type of stoichiometry literature indicates a possibility of evaluating the stability constant starting from the equation of a quadratic model. Even if this is not a perfect model and the value calculated is affected by an error ~30%, reliable information about the stability of the (2a)@β -CD complex could be obtained. The model ensures the calculation of K1:1 and K1:2. The obtained values were 20.44 and 6 M^–1.
The method settled for phase-solubility studies was adapted from a previous paper. First, calibration curves for (1) and (2) were obtained. For this purpose, successive dilutions from the stock solution were performed, spectra were recorded and absorbance reeded 312 nm (1) and 272 nm (2). The plot of absorbance versus concentration gives two straight lines for both (1) and (2) complexes: y = 0.5111x − 0.0323 (R^2 = 0.9996) and y = 18.792x − 0.0323 (R^2 = 0.9996), respectively. Second, water and β-CD 20 mM were added to six samples containing an excess of complex (50 mg) that had the same volume but increasing β-CD concentration. In all experiments, the final volume was 5 mL. The samples were shaken for 1 h, filtered using 0.25 µm PTFE, and the solution was diluted to 1:25 mL before the spectra were recorded. The concentration of the complex in each solution was calculated using a calibration curve described above. In the end, the phase solubility diagrams were obtained by plotting the concentration of the complex versus the concentration of β-CD. The stability constants were calculated from the phase-solubility diagram as follows: (i) Kc = slope/[So × (1 − slope)], where So is the complex’s solubility in the absence of β-CD, for a 1:1 mole ratio, and (ii) STotal = S0 + K1:1[β-CD] + K1:1K1:2[β-CD]^2, where K1:1 and K1:2 are constants for 1:1 and 1:2 host–guest complexes and STotal is the total solubility of complex, for a 1:2 stoichiometry.

[7] = tested on: B16 melanoma cells; parameters: method as in PMID 34833864; settings: ref [25], cited from earlier work
[8] = tested on: biofilm-embedded cells; test: Crystal-violet microtiter anti-biofilm assay (MBEC); format: cell-based
Description: as §1

[9] = tested on: Escherichia coli ATCC 25922; parameters: method as in PMID 34833864; settings: E. coli, planktonic cells; ref [25]; cited from earlier work
[10] = tested on: Staphylococcus aureus ATCC 25923; parameters: method as in PMID 34833864; settings: S. aureus 25923, planktonic cells; ref [25]; cited from earlier work
[11] = parameters: method as in PMID 34833864; settings: ref [25]; cited from earlier work
[12] = tested on: L929 fibroblasts; parameters: method as in PMID 34833864; settings: L929, time not stated; ref [25]; cited from earlier work

## OC[C@H]1O[C@@H]2O[C@H]3[C@H](O)[C@@H](O)[C@@H](O[C@H]4[C@H](O)[C@@H](O)[C@@H](O[C@H]5[C@H](O)[C@@H](O)[C@@H](O[C@H]6[C@H](O)[C@@H](O)[C@@H](O[C@H]7[C@H](O)[C@@H](O)[C@@H](O[C@H]8[C@H](O)[C@@H](O)[C@@H](O[C@H]1[C@H](O)[C@H]2O)O[C@@H]8CO)O[C@@H]7CO)O[C@@H]6CO)O[C@@H]5CO)O[C@@H]4CO)O[C@@H]3CO [β-CD, β-cyclodextrin]
[1]
  MIC: no activity
[1]; Staphylococcus aureus, ATCC25923, read-out: MIC
  MIC: 8.81 mM (≈ 10000 µg/mL)
[2]; Escherichia coli, ATCC25922, planktonic cells, read-out: MIC
  MIC: 8.81 mM (≈ 10000 µg/mL)
[2]; planktonic cells
  MIC: no activity
[3]
  change of number of cells in either cell cycle phase: did not significantly alter
[4]
  change of number of cells in cell cycle phases: did not significantly alter
[5]
  effect on viability of normal fibroblast cells: did not affect the viability

## [Cu(bipy)(dmtp)2(OH2)](ClO4)2@β-CD [(1a)@β-CD]
[6]
  Kc (stability constant, 1:1): 250 M^–1

## [Cu(bipy)(dmtp)2(OH2)](ClO4)2·dmtp [(1)]
[6]
  solubilization in water in the presence of β-CD: solubilized in water
[7]; B16, previous study
  IC50 against B16 cells: no IC50 could be calculated
[8]
  antibiofilm activity: exhibit antibiofilm activity
[9]
  MIC: 0.71 mM
[10]
  MIC: 0.18 mM

## [Cu(phen)(dmtp)2(OH2)](ClO4)2·dmtp [(2)]
[11]
  scavenging of OH· radicals: not observed
[6]
  solubilization in water in the presence of β-CD: solubilized in water
[7]; B16, 24 h
  IC50 against B16 cells 24 h: 6.88 µg/mL
[7]; B16, 24 h, read-out: IC50 against B16 cells 24 h
  IC50: 7.6 µM
[7]; B16, 48 h
  IC50 against B16 cells 48 h: 4.15 µg/mL
[7]; B16, 48 h, read-out: IC50 against B16 cells 48 h
  IC50: 4.58 µM
[8]
  antibiofilm activity: exhibit antibiofilm activity
[9]
  MIC: 0.34 mM
[12]
  IC50: 15 µM
  IC50 L929: 13.61 µg/mL
[10]
  MIC: 0.04 mM

## [Cu(phen)(dmtp)2(OH2)](ClO4)2@β-CD [(2a)@β-CD]
[6]
  K1:1 (stability constant): 20.44 M^–1
  K1:2 (stability constant): 6 M^–1
